Test results published in ChEMBL document CHEMBL3352592, “The antileishmanial activity of isoforms 6- and 8-selective histone deacetylase inhibitors” (Bioorg Med Chem Lett, 2014).
Converted amounts (≈) assume the structure as drawn.

Tests used:
Leishmania donovani [1] = assay: Antileishmanial activity against amastigote stage of Leishmania donovani infected in human THP1 cells after 48 hrs by Alamar blue assay; format: functional, organism-based; conditions: THP-1, 48 h
THP-1 = assay: Cytotoxicity against human THP1 cells after 48 hrs by Alamar blue assay; format: ADME, cell-based; conditions: THP-1, 48 h
Leishmania donovani [2] = assay: Antileishmanial activity against axenic amastigote stage of Leishmania donovani after 72 hrs by Alamar blue assay; format: functional, organism-based
Leishmania donovani [3] = assay: Antileishmanial activity against promastigote stage of Leishmania donovani after 72 hrs by Alamar blue assay; format: functional, organism-based
Leishmania donovani [4] = assay: Selectivity ratio of IC50 for axenic amastigote stage of Leishmania donovani to IC50 for amastigote stage of Leishmania donovani infected in human THP1 cells; format: functional, THP-1
DU-145 = assay: Cytotoxicity against human DU145 cells; format: functional, cell-based
[5] = target: T1, Protein deacetylase HDAC6 (Homo sapiens, UniProt Q9UBN7); assay: Inhibition of HDAC6 in human LNCAP cells assessed as tubulin acetylation by Western blot analysis; format: cell-based
T1 sequence (Q9UBN7 whole entry): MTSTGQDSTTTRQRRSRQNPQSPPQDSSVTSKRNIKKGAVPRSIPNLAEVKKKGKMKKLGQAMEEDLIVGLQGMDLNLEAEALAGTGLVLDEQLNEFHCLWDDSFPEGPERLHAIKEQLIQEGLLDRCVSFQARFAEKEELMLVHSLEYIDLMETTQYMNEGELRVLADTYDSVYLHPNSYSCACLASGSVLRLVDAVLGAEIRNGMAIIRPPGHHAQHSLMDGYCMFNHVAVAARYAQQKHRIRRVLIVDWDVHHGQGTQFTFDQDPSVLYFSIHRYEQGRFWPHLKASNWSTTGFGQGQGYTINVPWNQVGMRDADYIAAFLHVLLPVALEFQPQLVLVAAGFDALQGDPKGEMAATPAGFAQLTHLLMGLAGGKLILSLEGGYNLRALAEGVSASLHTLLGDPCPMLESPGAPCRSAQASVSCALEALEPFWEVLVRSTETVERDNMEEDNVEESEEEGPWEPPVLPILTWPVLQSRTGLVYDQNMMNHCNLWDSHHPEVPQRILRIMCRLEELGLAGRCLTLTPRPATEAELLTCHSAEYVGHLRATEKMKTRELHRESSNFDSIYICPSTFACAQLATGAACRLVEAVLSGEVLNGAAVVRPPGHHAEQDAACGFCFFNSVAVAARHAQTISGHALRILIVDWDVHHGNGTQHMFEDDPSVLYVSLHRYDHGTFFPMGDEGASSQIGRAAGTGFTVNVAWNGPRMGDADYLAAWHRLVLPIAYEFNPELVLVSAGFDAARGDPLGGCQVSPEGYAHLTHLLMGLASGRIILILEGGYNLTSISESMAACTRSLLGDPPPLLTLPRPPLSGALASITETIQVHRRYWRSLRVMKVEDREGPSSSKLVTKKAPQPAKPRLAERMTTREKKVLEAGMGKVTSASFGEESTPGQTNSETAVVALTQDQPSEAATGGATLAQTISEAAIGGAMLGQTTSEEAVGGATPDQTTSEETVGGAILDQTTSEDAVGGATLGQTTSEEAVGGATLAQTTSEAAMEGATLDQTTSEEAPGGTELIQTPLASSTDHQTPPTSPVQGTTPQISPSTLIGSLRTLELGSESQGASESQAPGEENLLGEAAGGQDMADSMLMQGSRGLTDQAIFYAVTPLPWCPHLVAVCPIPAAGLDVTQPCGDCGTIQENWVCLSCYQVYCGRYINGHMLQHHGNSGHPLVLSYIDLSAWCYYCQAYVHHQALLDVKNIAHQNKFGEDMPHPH

LNCaP = assay: Cytotoxicity against human LNCAP cells; format: functional, cell-based
[6] = Cytotoxicity against human Jurkat gamma1 cells; format: functional, cell-based
Jurkat = assay: Cytotoxicity against human Jurkat cells; format: functional, cell-based

SMILES | IC50 (Leishmania donovani [1]) [µg/mL] | IC50 (THP-1) [µg/mL] | IC50 (Leishmania donovani [2]) [µg/mL] | IC50 (Leishmania donovani [3]) [µg/mL] | Ratio IC50 (Leishmania donovani [4]) | IC50 (DU-145) [µM] | IC50 [5] [µM] | IC50 (LNCaP) [µM] | IC50 [6] | IC50 (Jurkat) [µM]
COc1ccc(Cn2ccc3ccc(C(=O)NO)cc32)cc1 | > 10 | > 10 | > 40 |  |  |  |  |  |  | 
O=c1c(O)cccn1Cc1ccc(-c2ccccc2)cc1 | 1.7 (≈ 6.13 µM) | > 10 | 30.9 (≈ 111 µM) | 6.8 (≈ 24.5 µM) |  |  |  |  |  | 
O=c1c(O)cccn1Cc1ccccc1 | > 10 | > 10 | > 40 | 9.3 (≈ 46.2 µM) |  |  |  |  |  | 
N#Cc1cccc(-c2ccc(Cn3cccc(O)c3=O)cc2)c1 | 2.3 (≈ 7.61 µM) | > 10 | > 40 | 9 (≈ 29.8 µM) |  |  |  |  |  | 
Cc1ccc(-c2ccc(Cn3cccc(O)c3=O)cc2)cc1 | > 10 | > 10 | 29 (≈ 99.5 µM) | 6 (≈ 20.6 µM) |  |  |  |  |  | 
Cc1cccc(-c2ccc(Cn3cccc(O)c3=O)cc2)c1 | > 10 | > 10 | 32.5 (≈ 112 µM) | 12.6 (≈ 43.2 µM) |  |  |  |  |  | 
Cc1ccccc1-c1ccc(Cn2cccc(O)c2=O)cc1 | > 10 | > 10 | 31.6 (≈ 108 µM) | 27.6 (≈ 94.7 µM) |  |  |  |  |  | 
CN(C)c1ccc(-c2ccc(Cn3cccc(O)c3=O)cc2)cc1 | > 10 | > 10 | 4 (≈ 12.5 µM) | 7.5 (≈ 23.4 µM) |  |  |  |  |  | 
CN(C)c1ccc(-c2ccc(Cn3cccc(O)c3=O)cc2)cn1 | > 10 | > 10 | > 40 | 38.9 (≈ 121 µM) |  |  |  |  |  | 
N#Cc1ccc(-c2ccc(Cn3cccc(O)c3=O)cc2)cc1 | 3.5 (≈ 11.6 µM) | > 10 | 5 (≈ 16.5 µM) | 4.6 (≈ 15.2 µM) |  |  |  |  |  | 
CN(C)c1ccc(-n2cc(Cn3cccc(O)c3=S)nn2)cc1 | 1.5 (≈ 4.58 µM) | > 10 | 5.3 (≈ 16.2 µM) | 1.3 (≈ 3.97 µM) |  |  |  |  |  | 
Oc1cccn(Cc2cn(-c3ccccc3)nn2)c1=S | 2.7 (≈ 9.5 µM) | > 10 | 6.2 (≈ 21.8 µM) | 3.2 (≈ 11.3 µM) |  |  |  |  |  | 
CN(C)c1ccc(-c2ccc(Cn3cccc(O)c3=S)cc2)cn1 | 2.6 (≈ 7.7 µM) | > 10 | 6.1 (≈ 18.1 µM) | 2.3 (≈ 6.82 µM) |  |  |  |  |  | 
CN(C)c1ccc(-c2ccc(Cn3cccc(O)c3=S)cc2)cc1 | 0.3 (≈ 0.892 µM) | > 10 | 7.4 (≈ 22 µM) | 0.2 (≈ 0.594 µM) | 5 |  |  |  |  | 
Cc1ccccc1-c1ccc(Cn2cccc(O)c2=S)cc1 | 2.1 (≈ 6.83 µM) | > 10 | 34.4 (≈ 112 µM) | 0.3 (≈ 0.976 µM) |  | 13.6 | 7.75 |  |  | 
Cc1cccc(-c2ccc(Cn3cccc(O)c3=S)cc2)c1 | > 10 | > 10 | 32.6 (≈ 106 µM) | 0.3 (≈ 0.976 µM) |  |  |  |  |  | 
Cc1ccc(-c2ccc(Cn3cccc(O)c3=S)cc2)cc1 | 3.7 (≈ 12 µM) | > 10 | 31.3 (≈ 102 µM) | 0.3 (≈ 0.976 µM) |  |  |  |  |  | 
N#Cc1cccc(-c2ccc(Cn3cccc(O)c3=S)cc2)c1 | 3.9 (≈ 12.2 µM) | > 10 | 11.2 (≈ 35.2 µM) | 0.4 (≈ 1.26 µM) |  |  |  |  |  | 
N#Cc1ccc(-c2ccc(Cn3cccc(O)c3=S)cc2)cc1 | 0.9 (≈ 2.83 µM) | > 10 | 6.1 (≈ 19.2 µM) | 0.7 (≈ 2.2 µM) | 5 |  |  |  |  | 
Oc1cccn(Cc2ccc(-c3ccccc3)cc2)c1=S | 0.6 (≈ 2.05 µM) | > 10 | 6.3 (≈ 21.5 µM) | 0.1 (≈ 0.341 µM) | 5 |  |  |  |  | 
Oc1ccc[nH]c1=S | 6.1 (≈ 48 µM) | > 10 | 30.7 (≈ 241 µM) | 12.7 (≈ 99.9 µM) |  |  |  |  |  | 
Oc1cccn(Cc2ccccc2)c1=S | 5.8 (≈ 26.7 µM) | > 10 | 6.5 (≈ 29.9 µM) | 0.1 (≈ 0.46 µM) |  |  |  |  |  | 
Oc1cccnc1O | > 10 | > 10 | > 40 | > 40 |  |  |  |  |  | 
N#Cc1ccccc1-c1ccc(Cn2cccc(O)c2=O)cc1 | 1.8 (≈ 5.95 µM) | > 10 | > 40 | 26.7 (≈ 88.3 µM) |  |  |  |  |  | 
N#Cc1ccccc1-c1ccc(Cn2cccc(O)c2=S)cc1 | > 10 | > 10 | 31.7 (≈ 99.6 µM) | 0.9 (≈ 2.83 µM) |  | > 20 |  | 14.7 | Not Active | 8.95
O=c1c(O)cccn1Cc1cn(-c2ccccc2)nn1 | > 10 | > 10 | 18 (≈ 67.1 µM) | > 40 |  |  |  |  |  | 
CN(C)c1ccc(-n2cc(Cn3cccc(O)c3=O)nn2)cc1 | 2 (≈ 6.42 µM) | > 10 | > 40 | 14.5 (≈ 46.6 µM) |  |  |  |  |  | 
C[C@@H]1[C@H](O)[C@@H](C)/C=C/C=C/C=C/C=C/C=C/C=C/C=C/[C@H](O[C@@H]2O[C@H](C)[C@@H](O)[C@H](N)[C@@H]2O)C[C@@H]2O[C@](O)(C[C@@H](O)C[C@@H](O)[C@H](O)CC[C@@H](O)C[C@@H](O)CC(=O)O[C@H]1C)C[C@H](O)[C@H]2C(=O)O [AMPHOTERICIN B] | 0.2 (≈ 0.216 µM) | > 10 | 1.6 (≈ 1.73 µM) |  |  |  |  |  |  | 
N=C(N)c1ccc(OCCCCCOc2ccc(C(=N)N)cc2)cc1 [PENTAMIDINE] | 0.4 (≈ 1.17 µM) | > 10 | 8.9 (≈ 26.1 µM) | 0.6 (≈ 1.76 µM) |  |  |  |  |  | 
CN1CCc2c(c3ccccc3n2Cc2ccc(C(=O)NO)cc2)C1 [TUBASTATIN A] |  | > 10 | 8.8 (≈ 26.2 µM) | 4.4 (≈ 13.1 µM) |  |  |  |  |  | 
